This passage reports Ki results from article PMC1887769 (The Journal of General Physiology, 1998).

The experiment has as its target T1, αβγXENaC (Xenopus ENaC) (Xenopus laevis, UniProt P51167+P51169+P51171).
T1 sequence (P51167 1-632): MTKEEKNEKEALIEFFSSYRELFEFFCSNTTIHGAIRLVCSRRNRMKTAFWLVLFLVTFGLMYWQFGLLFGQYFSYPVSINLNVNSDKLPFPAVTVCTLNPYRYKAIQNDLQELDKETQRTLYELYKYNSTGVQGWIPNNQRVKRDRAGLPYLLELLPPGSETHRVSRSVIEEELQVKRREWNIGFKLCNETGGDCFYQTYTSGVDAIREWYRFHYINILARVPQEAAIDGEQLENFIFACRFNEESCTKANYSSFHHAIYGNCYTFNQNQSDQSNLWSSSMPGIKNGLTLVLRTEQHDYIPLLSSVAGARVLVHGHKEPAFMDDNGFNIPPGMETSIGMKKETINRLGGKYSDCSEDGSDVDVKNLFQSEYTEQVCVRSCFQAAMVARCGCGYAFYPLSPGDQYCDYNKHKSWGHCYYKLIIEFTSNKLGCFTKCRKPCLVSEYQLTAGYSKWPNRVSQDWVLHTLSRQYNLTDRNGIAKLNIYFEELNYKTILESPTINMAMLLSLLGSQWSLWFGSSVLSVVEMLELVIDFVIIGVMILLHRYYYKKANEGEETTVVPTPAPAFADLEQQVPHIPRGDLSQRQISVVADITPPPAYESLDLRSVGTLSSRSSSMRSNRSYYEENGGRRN
T1 sequence (P51169 1-647): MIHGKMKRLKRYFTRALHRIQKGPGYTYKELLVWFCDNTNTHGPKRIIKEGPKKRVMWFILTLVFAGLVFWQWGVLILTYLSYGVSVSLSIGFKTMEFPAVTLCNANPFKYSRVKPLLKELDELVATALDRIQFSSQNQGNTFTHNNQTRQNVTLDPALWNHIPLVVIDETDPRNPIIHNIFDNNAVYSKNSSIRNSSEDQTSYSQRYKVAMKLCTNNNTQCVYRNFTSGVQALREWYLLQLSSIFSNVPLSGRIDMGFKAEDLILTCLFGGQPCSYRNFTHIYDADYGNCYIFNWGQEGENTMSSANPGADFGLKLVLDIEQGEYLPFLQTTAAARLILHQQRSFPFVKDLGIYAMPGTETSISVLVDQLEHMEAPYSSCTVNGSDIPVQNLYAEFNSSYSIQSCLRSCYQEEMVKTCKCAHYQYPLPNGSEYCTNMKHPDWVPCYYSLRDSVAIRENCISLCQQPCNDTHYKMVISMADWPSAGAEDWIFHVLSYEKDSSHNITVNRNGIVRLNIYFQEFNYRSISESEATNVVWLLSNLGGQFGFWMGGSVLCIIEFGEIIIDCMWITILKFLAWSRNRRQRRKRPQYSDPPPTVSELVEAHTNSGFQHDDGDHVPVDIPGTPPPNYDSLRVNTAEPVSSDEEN
T1 sequence (P51171 1-660): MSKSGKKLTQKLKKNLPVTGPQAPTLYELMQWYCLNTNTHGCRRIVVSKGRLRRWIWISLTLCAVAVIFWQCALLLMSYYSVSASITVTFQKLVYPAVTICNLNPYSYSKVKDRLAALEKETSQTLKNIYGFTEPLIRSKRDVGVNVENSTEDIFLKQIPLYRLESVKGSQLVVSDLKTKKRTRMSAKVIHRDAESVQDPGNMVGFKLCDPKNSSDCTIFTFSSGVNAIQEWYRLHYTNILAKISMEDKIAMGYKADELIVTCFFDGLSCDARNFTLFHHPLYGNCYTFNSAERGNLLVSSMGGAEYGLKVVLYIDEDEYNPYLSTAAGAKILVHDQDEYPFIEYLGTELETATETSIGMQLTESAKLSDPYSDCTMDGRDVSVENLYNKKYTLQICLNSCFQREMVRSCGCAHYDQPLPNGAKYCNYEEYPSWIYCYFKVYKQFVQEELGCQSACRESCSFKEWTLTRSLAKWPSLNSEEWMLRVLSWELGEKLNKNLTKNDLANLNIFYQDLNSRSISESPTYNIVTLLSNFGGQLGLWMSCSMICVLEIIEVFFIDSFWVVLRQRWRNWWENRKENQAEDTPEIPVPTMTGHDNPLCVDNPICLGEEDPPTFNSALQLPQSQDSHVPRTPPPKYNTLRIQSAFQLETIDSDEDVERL
Briefly: two-electrode voltage clamp of Na+ current in oocytes. It counts as cell-based.

In the case of `N=C(N)NC(=O)c1nc(Cl)c(N)nc1N` [amiloride], the Ki turned out to be 0.55 ± 0.03 µM.
